From ChEMBL document CHEMBL4270604, “Hedgehog pathway inhibitors of the acylthiourea and acylguanidine class show antitumor activity on colon cancer in vitro and in vivo” (Eur J Med Chem, 2018)

Legend:
Homo sapiens = species: Homo sapiens; assay: Substrate activity at recombinant human P-gp in membrane fraction assessed as increase in ATPase activity at 10 uM by luminescent P-gp-Glo assay relative to control
Mus musculus = species: Mus musculus; assay: Inhibition of hedgehog signaling pathway in mouse Light2 cells stimulated with 100 nM SAG after 30 hrs by Gli-firefly luciferase reporter gene assay
[1] = as above
LS180 = assay: Antiproliferative activity against human LS180 cells after 72 hrs by sulforhodamine-B assay; assay type: functional, cell-based; details: for IC50: LS180, 72 h
[2] = Inhibition of hedgehog signaling pathway-mediated differentiation of mouse C3H10T1/2 cells assessed as decrease in SAG-induced ALP activity after 6 days by chemiluminescence-based assay; details: C3H 10T1/2, 144 h
[3] = target: T1, Coelenterazine h 2-monooxygenase (Renilla reniformis, UniProt P27652); assay: Effect on Renilla reniformis luciferase; assay type: ADME
T1 sequence (P27652 whole entry): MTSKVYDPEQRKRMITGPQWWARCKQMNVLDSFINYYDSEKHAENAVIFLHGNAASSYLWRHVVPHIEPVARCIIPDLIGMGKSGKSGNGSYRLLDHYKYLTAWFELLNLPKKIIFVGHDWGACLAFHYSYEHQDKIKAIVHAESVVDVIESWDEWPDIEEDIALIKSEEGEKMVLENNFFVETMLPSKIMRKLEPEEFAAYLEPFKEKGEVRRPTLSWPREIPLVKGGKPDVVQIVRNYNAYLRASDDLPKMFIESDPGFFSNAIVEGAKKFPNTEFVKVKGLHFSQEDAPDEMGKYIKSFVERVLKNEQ

HT-1080 = assay: Antiproliferative activity against human HT1080 cells after 72 hrs by sulforhodamine-B assay; assay type: functional, cell-based; details: for IC50: HT-1080, 72 h
in vitro [4] = details: human, Caco-2
Description: Apparent permeability of the compound from apical to basolateral side in human Caco2 cells assessed as drug recovery after 120 mins by LC-MS/MS analysis

in vitro [5] = details: human, Caco-2; remark: listed apart in the source
Description: Apparent permeability of the compound from basolateral to apical side in human Caco2 cells assessed as drug recovery after 120 mins by LC-MS/MS analysis

CYP2C19 [6] = target: T2, CYP2C19 (Homo sapiens, UniProt P33261); assay: Inhibition of recombinant human CYP2C19 expressed in insect cell microsomes at 5 uM using Luciferin-H EGE as substrate preincubated for 20 mins followed by NADPH addition measured after 30 mins by luminometric method; assay type: ADME; details: probe Luciferin-H EGE
T2 sequence (P33261 whole entry): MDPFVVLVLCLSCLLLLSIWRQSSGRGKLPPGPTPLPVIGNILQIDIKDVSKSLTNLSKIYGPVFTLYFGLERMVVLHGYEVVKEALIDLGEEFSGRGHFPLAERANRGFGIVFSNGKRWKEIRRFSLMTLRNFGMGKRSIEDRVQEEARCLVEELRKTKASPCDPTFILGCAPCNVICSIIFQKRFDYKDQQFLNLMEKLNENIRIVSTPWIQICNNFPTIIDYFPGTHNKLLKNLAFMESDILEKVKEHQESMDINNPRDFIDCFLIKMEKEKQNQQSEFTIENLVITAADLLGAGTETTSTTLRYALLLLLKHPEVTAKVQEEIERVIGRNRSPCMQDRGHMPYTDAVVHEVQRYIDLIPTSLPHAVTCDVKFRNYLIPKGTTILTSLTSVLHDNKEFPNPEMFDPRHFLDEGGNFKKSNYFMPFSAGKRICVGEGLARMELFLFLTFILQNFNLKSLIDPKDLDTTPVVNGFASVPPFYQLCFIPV

CYP2C9 [7] = target: T3, CYP2C9 (Homo sapiens, UniProt P11712); assay: Inhibition of recombinant human CYP2C9 expressed in insect cell microsomes at 5 uM using Luciferin-H as substrate preincubated for 30 mins followed by NADPH addition measured after 30 mins by luminometric method; assay type: ADME; details: probe Luciferin-H
T3 sequence (P11712 whole entry): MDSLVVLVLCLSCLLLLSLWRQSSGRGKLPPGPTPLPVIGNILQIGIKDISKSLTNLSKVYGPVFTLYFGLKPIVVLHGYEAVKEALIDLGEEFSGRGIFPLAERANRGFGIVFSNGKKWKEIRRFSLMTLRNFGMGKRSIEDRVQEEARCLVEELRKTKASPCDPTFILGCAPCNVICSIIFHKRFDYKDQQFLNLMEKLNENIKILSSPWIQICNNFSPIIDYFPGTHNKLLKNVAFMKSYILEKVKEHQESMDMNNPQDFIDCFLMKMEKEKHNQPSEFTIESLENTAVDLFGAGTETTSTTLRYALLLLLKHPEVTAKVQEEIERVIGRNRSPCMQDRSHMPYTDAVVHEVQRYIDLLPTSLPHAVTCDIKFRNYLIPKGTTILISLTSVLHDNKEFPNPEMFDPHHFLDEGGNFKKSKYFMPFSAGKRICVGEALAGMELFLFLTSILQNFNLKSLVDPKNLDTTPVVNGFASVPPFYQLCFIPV

[8] = Drug recovery in mouse plasma at 37 degC after 120 mins by HPLC-MS/MS analysis; assay type: ADME, cell-free; details: read-out: Drug recovery
CYP2D6 [9] = target: T4, CYP2D6 (Homo sapiens, UniProt P10635); assay: Inhibition of recombinant human CYP2D6 expressed in insect cell microsomes at 5 uM using Luciferin-ME EGE as substrate preincubated for 30 mins followed by NADPH addition measured after 45 mins by luminometric method; assay type: ADME; details: probe Luciferin-ME EGE
T4 sequence (P10635 whole entry): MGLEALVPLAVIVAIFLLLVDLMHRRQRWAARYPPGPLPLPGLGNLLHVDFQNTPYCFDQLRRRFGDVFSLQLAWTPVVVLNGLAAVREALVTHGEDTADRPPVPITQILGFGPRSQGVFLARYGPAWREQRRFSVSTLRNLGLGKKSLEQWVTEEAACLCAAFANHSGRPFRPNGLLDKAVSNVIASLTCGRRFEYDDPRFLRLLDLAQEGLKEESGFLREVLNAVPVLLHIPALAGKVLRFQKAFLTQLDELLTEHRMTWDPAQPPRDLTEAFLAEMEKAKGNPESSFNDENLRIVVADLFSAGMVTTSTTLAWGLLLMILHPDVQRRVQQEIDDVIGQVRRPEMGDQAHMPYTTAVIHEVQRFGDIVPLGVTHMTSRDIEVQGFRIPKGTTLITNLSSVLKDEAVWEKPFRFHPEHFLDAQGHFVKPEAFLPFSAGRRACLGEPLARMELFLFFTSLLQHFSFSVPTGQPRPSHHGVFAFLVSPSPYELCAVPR

CYP2C19 [10] = target: T2, CYP2C19; assay: Inhibition of recombinant human CYP2C19 expressed in insect cell microsomes at 10 uM using Luciferin-H EGE as substrate preincubated for 20 mins followed by NADPH addition measured after 30 mins by luminometric method; assay type: ADME; details: probe Luciferin-H EGE
CYP2D6 [11] = target: T4, CYP2D6; assay: Inhibition of recombinant human CYP2D6 expressed in insect cell microsomes at 10 uM using Luciferin-ME EGE as substrate preincubated for 30 mins followed by NADPH addition measured after 45 mins by luminometric method; assay type: ADME; details: probe Luciferin-ME EGE
[12] = Stability of the compound in mouse deproteinized plasma at 37 degC after 120 mins by HPLC-MS/MS analysis; assay type: ADME, cell-free; details: 2 h
CYP3A4 [13] = target: T5, CYP3A4 (Homo sapiens, UniProt P08684); assay: Inhibition of recombinant human CYP3A4 expressed in insect cell microsomes at 10 uM using Luciferin-IPA as substrate preincubated for 10 mins followed by NADPH addition measured after 10 mins by luminometric method; assay type: ADME; details: probe Luciferin-IPA
T5 sequence (P08684 whole entry): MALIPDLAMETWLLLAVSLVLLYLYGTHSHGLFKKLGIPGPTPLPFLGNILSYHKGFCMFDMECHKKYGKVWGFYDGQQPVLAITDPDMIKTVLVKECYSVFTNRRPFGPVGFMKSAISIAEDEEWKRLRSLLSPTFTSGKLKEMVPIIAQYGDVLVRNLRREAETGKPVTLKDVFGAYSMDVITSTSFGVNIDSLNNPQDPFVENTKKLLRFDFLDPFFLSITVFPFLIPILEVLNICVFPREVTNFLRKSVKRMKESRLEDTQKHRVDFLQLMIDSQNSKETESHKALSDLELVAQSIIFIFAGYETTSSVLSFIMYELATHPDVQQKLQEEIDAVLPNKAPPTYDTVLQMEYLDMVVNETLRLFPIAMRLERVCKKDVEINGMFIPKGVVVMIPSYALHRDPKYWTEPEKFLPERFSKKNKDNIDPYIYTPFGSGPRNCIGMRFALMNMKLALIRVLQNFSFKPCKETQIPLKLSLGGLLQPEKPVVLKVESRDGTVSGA

CYP2C19 [14] = target: T2, CYP2C19; assay: Inhibition of recombinant human CYP2C19 expressed in insect cell microsomes at 1 uM using Luciferin-H EGE as substrate preincubated for 20 mins followed by NADPH addition measured after 30 mins by luminometric method; assay type: ADME; details: probe Luciferin-H EGE
CYP3A4 [15] = target: T5, CYP3A4; assay: Inhibition of recombinant human CYP3A4 expressed in insect cell microsomes at 1 uM using Luciferin-IPA as substrate preincubated for 10 mins followed by NADPH addition measured after 10 mins by luminometric method; assay type: ADME; details: probe Luciferin-IPA
CYP2D6 [16] = target: T4, CYP2D6; assay: Inhibition of recombinant human CYP2D6 expressed in insect cell microsomes at 1 uM using Luciferin-ME EGE as substrate preincubated for 30 mins followed by NADPH addition measured after 45 mins by luminometric method; assay type: ADME; details: probe Luciferin-ME EGE
CYP1A2 [17] = target: T6, CYP1A2 (Homo sapiens, UniProt P05177); assay: Inhibition of recombinant human CYP1A2 expressed in insect cell microsomes at 5 uM using Luciferin-ME as substrate preincubated for 10 mins followed by NADPH addition measured after 30 mins by luminometric method; assay type: ADME; details: probe Luciferin-ME
T6 sequence (P05177 whole entry): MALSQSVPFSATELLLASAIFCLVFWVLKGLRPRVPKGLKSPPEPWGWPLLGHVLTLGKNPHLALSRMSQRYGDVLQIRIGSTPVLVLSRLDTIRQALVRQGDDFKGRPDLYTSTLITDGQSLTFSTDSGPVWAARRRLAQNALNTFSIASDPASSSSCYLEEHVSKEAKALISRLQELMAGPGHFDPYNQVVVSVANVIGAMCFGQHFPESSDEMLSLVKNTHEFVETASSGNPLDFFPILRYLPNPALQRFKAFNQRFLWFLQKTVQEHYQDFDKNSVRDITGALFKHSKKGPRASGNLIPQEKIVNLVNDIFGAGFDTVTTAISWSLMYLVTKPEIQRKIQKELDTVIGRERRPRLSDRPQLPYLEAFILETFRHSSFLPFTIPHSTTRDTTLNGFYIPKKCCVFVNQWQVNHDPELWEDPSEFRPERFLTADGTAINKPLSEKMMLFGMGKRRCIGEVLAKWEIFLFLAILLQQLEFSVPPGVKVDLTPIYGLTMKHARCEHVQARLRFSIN

CYP2C9 [18] = target: T3, CYP2C9; assay: Inhibition of recombinant human CYP2C9 expressed in insect cell microsomes at 1 uM using Luciferin-H as substrate preincubated for 30 mins followed by NADPH addition measured after 30 mins by luminometric method; assay type: ADME; details: probe Luciferin-H
CYP1A2 [19] = target: T6, CYP1A2; assay: Inhibition of recombinant human CYP1A2 expressed in insect cell microsomes at 10 uM using Luciferin-ME as substrate preincubated for 10 mins followed by NADPH addition measured after 30 mins by luminometric method; assay type: ADME; details: probe Luciferin-ME
CYP1A2 [20] = target: T6, CYP1A2; assay: Inhibition of recombinant human CYP1A2 expressed in insect cell microsomes at 1 uM using Luciferin-ME as substrate preincubated for 10 mins followed by NADPH addition measured after 30 mins by luminometric method; assay type: ADME; details: probe Luciferin-ME
CYP3A4 [21] = target: T5, CYP3A4; assay: Inhibition of recombinant human CYP3A4 expressed in insect cell microsomes at 5 uM using Luciferin-IPA as substrate preincubated for 10 mins followed by NADPH addition measured after 10 mins by luminometric method; assay type: ADME; details: probe Luciferin-IPA
CYP2C9 [22] = target: T3, CYP2C9; assay: Inhibition of recombinant human CYP2C9 expressed in insect cell microsomes at 10 uM using Luciferin-H as substrate preincubated for 30 mins followed by NADPH addition measured after 30 mins by luminometric method; assay type: ADME; details: probe Luciferin-H
in vitro [23] = details: human, Caco-2; remark: listed apart in the source
Description: Apparent permeability of the compound from apical to basolateral side in human Caco2 cells after 120 mins by LC-MS/MS analysis

[24] = Intrinsic clearance in mouse liver microsomes at 1 uM after 120 mins by HPLC-MS/MS analysis; assay type: ADME, microsome; details: read-out: CLH
[25] = Half life in cryopreserved mouse liver microsomes at 1 uM after 120 mins by HPLC-MS/MS analysis; assay type: ADME, microsome
[26] = Intrinsic clearance in mouse liver […] per million cells at 1 uM after 120 mins by HPLC-MS/MS analysis; assay type: ADME; details: 2 h

With `COc1ccc(CCN(C)CCCC(C#N)(c2ccc(OC)c(OC)c2)C(C)C)cc1OC` (stereo not given) the fold change (FC) (Homo sapiens) was 8.5.

With `CS(=O)(=O)c1ccc(C(=O)Nc2ccc(Cl)c(-c3ccccn3)c2)c(Cl)c1` [VISMODEGIB] the inhibition (Mus musculus) was “Dose-dependent effect”, the IC50 [1] was 50 nM and the Activity (LS180) was “Dose-dependent effect”. For the same molecule, the IC50 (LS180) was 45000 nM, the IC50 [2] was 50 nM and the Activity [3] was “Not Active”. The Activity (HT-1080) was “Dose-dependent effect” and the IC50 (HT-1080) was over 100000 nM.

In the case of `CC(C)NCC(O)COc1ccc(CC(N)=O)cc1` (stereo not given) [ATENOLOL], the recovery at 2 h (in vitro [4]) is reported as 94.7% and the recovery at 2 h (in vitro [5]) is reported as 102%.

In the case of `COc1cc(C(=O)NC(=S)Nc2ccc(C)c(NC(=O)c3ccc(-c4ccc(F)cc4)cc3)c2)cc(OC)c1OC`, the inhibition at 0.5 h, 5 µM (CYP2C19 [6]) is reported as 33%, the recovery at 2 h (in vitro [4]) is reported as 65.4% and the inhibition (Mus musculus) is reported as “Dose-dependent effect”. For the same molecule, the IC50 [1] was 100 nM, the inhibition at 0.5 h, 5 µM (CYP2C9 [7]) was 69% and the remaining at 2 h [8] was 4.9%. The inhibition at 0.75 h, 5 µM (CYP2D6 [9]) was 1%, the inhibition at 0.5 h, 10 µM (CYP2C19 [10]) was 27% and the inhibition at 0.75 h, 10 µM (CYP2D6 [11]) was 6%. The Stability [12] was “Stable”, the recovery at 2 h (in vitro [5]) was 42.9% and the inhibition at 10 min, 10 µM (CYP3A4 [13]) was 15%. It also gave an inhibition at 0.5 h, 1 µM (CYP2C19 [14]) of 25%, an inhibition at 10 min, 1 µM (CYP3A4 [15]) of 4% and an inhibition at 0.75 h, 1 µM (CYP2D6 [16]) of 18%. For the same molecule, the Activity (LS180) was “Dose-dependent effect”, the IC50 (LS180) was 7500 nM and the inhibition at 0.5 h, 5 µM (CYP1A2 [17]) was 5%. It also gave an inhibition at 0.5 h, 1 µM (CYP2C9 [18]) of 63%, an inhibition at 0.5 h, 10 µM (CYP1A2 [19]) of 1% and an inhibition at 0.5 h, 1 µM (CYP1A2 [20]) of 2%. The IC50 [2] was 670 nM, the fold change (FC) (Homo sapiens) was 3 and the Activity [3] was “Not Active”. The Activity (HT-1080) was “Dose-dependent effect”, the IC50 (HT-1080) was 27000 nM and the inhibition at 10 min, 5 µM (CYP3A4 [21]) was 7%. For the same molecule, the inhibition at 0.5 h, 10 µM (CYP2C9 [22]) was 71%.

`CC(C)NCC(O)COc1cccc2ccccc12` (stereo not given) [PROPRANOLOL] showed a recovery at 2 h (in vitro [4]) of 70% and a Papp A→B at 2 h (in vitro [23]) of 30.9 ×10⁻⁶ cm/s.

For `CCOc1ccc2ccc(=O)oc2c1` [ETHOXYCOUMARIN], the CLint scaled at 1 µM [24] was 1260 mL/min/kg, the half-life at 1 µM [25] was 4.84 min and the CLH [26] was 477 µL/min.

`Cc1c(C)c2c(c(C)c1O)CCC(C)(COc1ccc(CC3SC(=O)NC3=O)cc1)O2` (stereo not given) [TROGLITAZONE] showed an inhibition at 0.5 h, 10 µM (CYP2C19 [10]) of 84%.
